Reference: patent publication US7790740B2 (priority 2003, dated 2010)
Read-outs that look alike come from different tables or passages of the source.

Assays:
HIV-1 fusion = experiment: gp160 induced cell-cell fusion assay (HeLa P4 / CHO-Tat10); assay type: cell-based; settings: Human immunodeficiency virus 1, HeLaP4, read-out: IC50 against HIV-1 fusion (gp160 induced cell-cell fusion)
Description: The gp160 induced cell-cell fusion assay uses a HeLa P4 cell line and a CHO-Tat10 cell line.
The HeLa P4 cell line expresses CCR5 and CD4 and has been transfected with HIV-1 LTR-β-Galactosidase. The media for this cell line is Dulbecco modified eagle's medium (D-MEM) (without L-glutamine) containing 10% foetal calf serum (FCS), 2 mM L-glutamine penicillin/streptomycin (Pen/Strep; 100 U/mL penicillin+[…] streptomycin), and 1 μg/ml puromycin.
The CHO cell line is a Tat (transcriptional trans activator)-expressing clone from a CHO JRR17.1 cell line that has been transfected with pTat puro plasmid. […]
Upon cell fusion, Tat present in the CHO cell is able to transactivate the HIV-1 long terminal repeat (LTR) present in the HeLa cell leading to the expression of the β-Galactosidase enzyme. This expression is then measured using a Fluor Ace™ β-Galactosidase reporter assay kit (Bio-Rad cat no. 170-3150). This kit is a quantitative fluorescent assay that determines the level of expression of β-galactosidase using 4-methylumbelliferul-galactopyranoside (MUG) as substrate. β-Galactosidase hydrolyses the fluorogenic substrate resulting in release of the fluorescent molecule 4-methylumbelliferone (4 MU). Fluorescence of 4-methylumbelliferone is then measured on a fluorometer using an excitation wavelength of 360 nm and emission wavelength of 460 nm. […]

CCR5 = CCR5 (Homo sapiens, UniProt P51681); experiment: assay for CCR5 binding according to Combadiere et al
Description: Biol., 60, 147-52 (1996); and/or by using the intracellular calcium mobilisation assays as described by the same authors. Cell lines expressing the receptor of interest include those naturally expressing the receptor, such as PM-1, or IL-2 stimulated peripheral blood lymphocytes (PBL), or a cell engineered to express a recombinant receptor, such as CHO, 300.19, L1.2 or HEK-293.

Sequence of CCR5 (P51681 whole entry): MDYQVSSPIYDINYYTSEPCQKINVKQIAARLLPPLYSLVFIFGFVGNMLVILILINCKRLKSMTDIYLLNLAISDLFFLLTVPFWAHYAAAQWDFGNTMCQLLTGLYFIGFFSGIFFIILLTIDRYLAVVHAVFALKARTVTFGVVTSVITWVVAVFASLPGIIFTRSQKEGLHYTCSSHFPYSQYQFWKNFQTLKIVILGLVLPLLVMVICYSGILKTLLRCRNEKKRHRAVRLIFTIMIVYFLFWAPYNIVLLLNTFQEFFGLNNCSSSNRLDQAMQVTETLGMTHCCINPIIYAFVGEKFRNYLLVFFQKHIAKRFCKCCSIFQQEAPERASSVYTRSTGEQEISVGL

Row | IC50 (CCR5; ligand MIP-1α, read-out: IC50 CCR5 binding (MIP-1α)) [nM] | IC50 (CCR5; ligand MIP-1β, read-out: IC50 CCR5 binding (MIP-1β)) [nM] | IC50 (CCR5; ligand RANTES, read-out: IC50 CCR5 binding (RANTES)) [nM] | SMILES | IC50 (HIV-1 fusion) [nM] | IC50 (CCR5; IC50 CCR5 binding (MIP-1α), ligand MIP-1α) [nM] | IC50 (CCR5; IC50 CCR5 binding (MIP-1β), ligand MIP-1β) [nM] | IC50 (CCR5; IC50 CCR5 binding (RANTES), ligand RANTES) [nM]
1 | – | – | – | CCC(=O)N1CCc2c(nc(C)n2[C@H]2C[C@H]3CC[C@@H](C2)N3CC[C@H](NC(C)=O)c2cccc(F)c2)C1 [Example 5, N-{(1S)-3-[3-endo-(2-Methyl-5-propionyl-4,5,6,7-tetrahydro-1H-imidazo[4,5-c]pyridin-1-yl)-8-azabicyclo[3.2.1]oct-8-yl]-1-(3-fluorophenyl)propyl}acetamide] | 0.12 | 2.7 | 2.4 | 1.9
2 | 7.5 | 7.3 | 6.7 | CC(=O)N[C@@H](CCN1[C@@H]2CC[C@H]1C[C@@H](n1c(C)nc3c1CCN(C(=O)C(C)C)C3)C2)c1cccc(F)c1 [Example 4, N-{(1S)-3-[3-endo-(5-Isobutyryl-2-methyl-4,5,6,7-tetrahydro-1H-imidazo[4,5-c]pyridin-1-yl)-8-azabicyclo[3.2.1]oct-8-yl]-1-(3-fluorophenyl)propyl}acetamide] | – | – | – | –
3 | – | – | – | CC(=O)N[C@@H](CCN1[C@@H]2CC[C@H]1C[C@@H](n1c(C)nc3c1CCN(C(C)=O)C3)C2)c1cccc(F)c1 [Example 1, N-{(1S)-3-[3-endo-(5-Acetyl-2-methyl-4,5,6,7-tetrahydro-1H-imidazo[4,5-c]pyridin-1-yl)-8-azabicyclo[3.2.1]oct-8-yl]-1-(3-fluorophenyl)propyl}acetamide] | 0.13 | – | – | –
